From patent US12043632B2, “6-heteroaryloxy benzimidazoles and azabenzimidazoles as JAK2 inhibitors” (Ajax Therapeutics, Inc., priority 2020, dated 2024)

These molecules were tested against T1, JAK2 (JH1domain-catalytic, Y1007F,Y1008F) kinase (Homo sapiens, UniProt O60674, Y1007F/Y1008F) (assay: JAK2 JH1 Domain Binding Assay). Settings: qPCR readout.
T1 construct: JAK2 (JH1domain-catalytic, Y1007F,Y1008F) kinase was expressed as N-terminal fusion; made in house; host or cells: transiently transfected HEK293 cells
T1 sequence (O60674 849-1124 Y1007F/Y1008F limits assumed): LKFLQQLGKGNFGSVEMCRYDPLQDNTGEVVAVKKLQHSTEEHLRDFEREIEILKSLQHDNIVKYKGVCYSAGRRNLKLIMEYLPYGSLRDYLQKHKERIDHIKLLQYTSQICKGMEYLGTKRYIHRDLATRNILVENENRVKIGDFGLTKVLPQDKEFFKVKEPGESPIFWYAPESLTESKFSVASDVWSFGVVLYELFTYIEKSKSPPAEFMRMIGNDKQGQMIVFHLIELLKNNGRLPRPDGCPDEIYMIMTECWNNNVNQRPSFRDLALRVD
`Cn1c(Nc2cc(C(F)(F)F)cn([C@@H]3CC[C@H]3O)c2=O)nc2ncc(Oc3cnn4ccncc34)c(Cl)c21` (single isomer, unassigned) [Example I-105-b] was tested, and the Kd was less than 0.01 µM. For `Cn1c(Nc2cc(C(F)(F)F)cn([C@@H]3CCCOC3)c2=O)nc2ncc(Oc3cnn4ccncc34)c(Cl)c21` (single isomer, unassigned) [Example I-107-a], the Kd was less than 0.01 µM. Work on `Cn1c(Nc2cc(C(F)(F)F)cn([C@H]3CCCOC3)c2=O)nc2ncc(Oc3cnn4ccncc34)c(Cl)c21` (single isomer, unassigned) [Example I-107-b] yielded a Kd of less than 0.01 µM. For `COc1c(Oc2cnn3ccncc23)cnc2nc(Nc3cc(C4CC4)cn([C@H]4CC[C@@H]4O)c3=O)n(C)c12` (single isomer, unassigned) [Example I-110-a], the Kd was less than 0.01 µM. `COc1c(Oc2cnn3ccncc23)cnc2nc(Nc3cc(C4CC4)cn([C@@H]4CC[C@H]4O)c3=O)n(C)c12` (single isomer, unassigned) [Example I-110-b] gave a Kd of 0.01 to 0.05 µM. `COc1c(Oc2cnn3ccncc23)cnc2nc(Nc3cc(C(F)(F)F)cn([C@H]4CC[C@@H]4O)c3=O)n(C)c12` (single isomer, unassigned) [Example I-113-a] gave a Kd of 0.01 to 0.05 µM. Work on `COc1c(Oc2cnn3ccncc23)cnc2nc(Nc3cc(C(F)(F)F)cn([C@@H]4CC[C@H]4O)c3=O)n(C)c12` (single isomer, unassigned) [Example I-113-b] yielded a Kd of 0.01 to 0.05 µM. Work on `Cn1c(Nc2cc(C3CC3)cn([C@@H]3CC[C@@H]3O)c2=O)nc2ncc(Oc3cnn4ccccc34)c(Cl)c21` (single isomer, unassigned) [Example I-114-a] yielded a Kd of less than 0.01 µM. With `Cn1c(Nc2cc(C3CC3)cn([C@H]3CC[C@H]3O)c2=O)nc2ncc(Oc3cnn4ccccc34)c(Cl)c21` (single isomer, unassigned) [Example I-114-b] the Kd was less than 0.01 µM. `Cn1c(Nc2cc(C(F)(F)F)cn([C@@H]3CC[C@@H]3O)c2=O)nc2ncc(Oc3cnn4ccncc34)c(Cl)c21` (single isomer, unassigned) [Example I-119-a] gave a Kd of less than 0.01 µM. With `Cn1c(Nc2cc(C(F)(F)F)cn([C@H]3CC[C@H]3O)c2=O)nc2ncc(Oc3cnn4ccncc34)c(Cl)c21` (single isomer, unassigned) [Example I-119-b] the Kd was less than 0.01 µM. `COc1c(Oc2cnn3ccncc23)cnc2nc(Nc3cc(C4CC4)cn([C@@H](C)CC#N)c3=O)n(C)c12` (single isomer, unassigned) [Example I-121-a] gave a Kd of less than 0.01 µM. `COc1c(Oc2cnn3ccncc23)cnc2nc(Nc3cc(C4CC4)cn([C@H](C)CC#N)c3=O)n(C)c12` (single isomer, unassigned) [Example I-121-b] showed a Kd of less than 0.01 µM. `COc1c(Oc2cnn3ccccc23)cnc2nc(Nc3cc(C4CC4)cn([C@@H]4CC[C@H]4O)c3=O)n(C)c12` (single isomer, unassigned) [Example I-122-a] was tested, and the Kd was less than 0.01 µM. Work on `COc1c(Oc2cnn3ccccc23)cnc2nc(Nc3cc(C4CC4)cn([C@H]4CC[C@@H]4O)c3=O)n(C)c12` (single isomer, unassigned) [Example I-122-b] yielded a Kd of less than 0.01 µM. With `COc1c(Oc2cnn3ccccc23)cnc2nc(Nc3cc(C4CC4)cn([C@@H]4CC[C@@H]4O)c3=O)n(C)c12` (single isomer, unassigned) [Example I-131-a] the Kd was less than 0.01 µM. In the case of `COc1c(Oc2cnn3ccccc23)cnc2nc(Nc3cc(C4CC4)cn([C@H]4CC[C@H]4O)c3=O)n(C)c12` (single isomer, unassigned) [Example I-131-b], the Kd is reported as 0.01 to 0.05 µM. Molecule `Cn1cc(C2CC2)cc(Nc2nc3ncc(Oc4cnn5ccnc(O[C@@H]6CC[C@H]6O)c45)c(Cl)c3n2C)c1=O` (single isomer, unassigned) [Example I-133-a] has a Kd of less than 0.01 µM. Work on `Cn1cc(C2CC2)cc(Nc2nc3ncc(Oc4cnn5ccnc(O[C@H]6CC[C@@H]6O)c45)c(Cl)c3n2C)c1=O` (single isomer, unassigned) [Example I-133-b] yielded a Kd of less than 0.01 µM. `Cn1cc(C(F)(F)F)cc(Nc2nc3ncc(Oc4cnn5ccnc(O[C@@H]6CC[C@H]6O)c45)c(Cl)c3n2C)c1=O` (single isomer, unassigned) [Example I-139-a] was tested, and the Kd was less than 0.01 µM. For `Cn1cc(C(F)(F)F)cc(Nc2nc3ncc(Oc4cnn5ccnc(O[C@H]6CC[C@@H]6O)c45)c(Cl)c3n2C)c1=O` (single isomer, unassigned) [Example I-139-b], the Kd was less than 0.01 µM. For `Cn1c(Nc2cc(C(C)(C)C)n([C@H]3CC[C@H]3O)n2)nc2ncc(Oc3cnn4ccncc34)c(Cl)c21` (single isomer, unassigned) [Example I-147-a], the Kd was less than 0.01 µM. `Cn1c(Nc2cc(C(C)(C)C)n([C@@H]3CC[C@@H]3O)n2)nc2ncc(Oc3cnn4ccncc34)c(Cl)c21` (single isomer, unassigned) [Example I-147-b] gave a Kd of less than 0.01 µM. `Cn1c(Nc2cc(C3CC3)nn([C@@H]3CCCOC3)c2=O)nc2ncc(Oc3cnn4ccccc34)c(Cl)c21` (single isomer, unassigned) [Example I-148-a] was tested, and the Kd was less than 0.01 µM. With `Cn1c(Nc2cc(C3CC3)nn([C@H]3CCCOC3)c2=O)nc2ncc(Oc3cnn4ccccc34)c(Cl)c21` (single isomer, unassigned) [Example I-148-b] the Kd was 0.01 to 0.05 µM. `Cn1c(Nc2cc(C(C)(C)C)n([C@H]3COC[C@@H]3O)n2)nc2ncc(Oc3cnn4ccncc34)c(C#N)c21` (single isomer, unassigned) [Example I-150-a] showed a Kd of 0.01 to 0.05 µM. Work on `Cn1c(Nc2cc(C(C)(C)C)n([C@@H]3COC[C@H]3O)n2)nc2ncc(Oc3cnn4ccncc34)c(C#N)c21` (single isomer, unassigned) [Example I-150-b] yielded a Kd of 0.01 to 0.05 µM. Work on `CNc1nccn2ncc(Oc3cnc4nc(Nc5cc(C(F)(F)F)cn([C@H]6CCCOC6)c5=O)n(C)c4c3Cl)c12` (single isomer, unassigned) [Example I-245-a] yielded a Kd of less than 0.01 µM. For `CNc1nccn2ncc(Oc3cnc4nc(Nc5cc(C(F)(F)F)cn([C@@H]6CCCOC6)c5=O)n(C)c4c3Cl)c12` (single isomer, unassigned) [Example I-245-b], the Kd was 0.01 to 0.05 µM. `CNc1nccn2ncc(Oc3cnc4nc(Nc5cc(C(F)(F)F)cn([C@H]6CCOC6)c5=O)n(C)c4c3Cl)c12` (single isomer, unassigned) [Example I-262-a] gave a Kd of less than 0.01 µM. In the case of `CNc1nccn2ncc(Oc3cnc4nc(Nc5cc(C(F)(F)F)cn([C@@H]6CCOC6)c5=O)n(C)c4c3Cl)c12` (single isomer, unassigned) [Example I-262-b], the Kd is reported as less than 0.01 µM. `CN1C[C@@H](F)[C@H](n2nc(Nc3nc4ncc(Oc5cnn6ccncc56)c(Cl)c4n3C)cc2C(C)(C)C)C1` (single isomer, unassigned) [Example I-267-a] showed a Kd of 0.01 to 0.05 µM. `CN1C[C@H](F)[C@@H](n2nc(Nc3nc4ncc(Oc5cnn6ccncc56)c(Cl)c4n3C)cc2C(C)(C)C)C1` (single isomer, unassigned) [Example I-267-b] was tested, and the Kd was 0.05 to 1 µM. `CNc1nccn2ncc(Oc3cnc4nc(Nc5cc(C6CCCN6C)cc(C(F)(F)F)c5)n(C)c4c3Cl)c12` (single isomer, unassigned) [Example I-269-a] showed a Kd of 0.01 to 0.05 µM. `CNc1nccn2ncc(Oc3cnc4nc(Nc5cc(C6CCCN6C)cc(C(F)(F)F)c5)n(C)c4c3Cl)c12` (single isomer, unassigned) [Example I-269-b] showed a Kd of 0.01 to 0.05 µM. `CN1CCC[C@@H]1c1cc(Nc2nc3ncc(Oc4cnn5ccncc45)c(Cl)c3n2C)cc(C(F)(F)F)c1` (single isomer, unassigned) [Example I-270-a] was tested, and the Kd was less than 0.01 µM. In the case of `CN1CCC[C@H]1c1cc(Nc2nc3ncc(Oc4cnn5ccncc45)c(Cl)c3n2C)cc(C(F)(F)F)c1` (single isomer, unassigned) [Example I-270-b], the Kd is reported as less than 0.01 µM. With `CNc1nccn2ncc(Oc3cnc4nc(Nc5cc(C(F)(F)F)n([C@H]6COC[C@@H]6O)n5)n(C)c4c3Cl)c12` (single isomer, unassigned) [Example I-279-a] the Kd was less than 0.01 µM. `CNc1nccn2ncc(Oc3cnc4nc(Nc5cc(C(F)(F)F)n([C@@H]6COC[C@H]6O)n5)n(C)c4c3Cl)c12` (single isomer, unassigned) [Example I-279-b] showed a Kd of less than 0.01 µM. With `CNc1nccn2ncc(Oc3cnc4nc(Nc5cc([C@@H]6CCOC6)nc(C(F)(F)F)c5)n(C)c4c3Cl)c12` (single isomer, unassigned) [Example I-280-a] the Kd was 0.01 to 0.05 µM. `CNc1nccn2ncc(Oc3cnc4nc(Nc5cc([C@H]6CCOC6)nc(C(F)(F)F)c5)n(C)c4c3Cl)c12` (single isomer, unassigned) [Example I-280-b] gave a Kd of 0.01 to 0.05 µM. `CNc1cn2ncc(Oc3cnc4nc(Nc5cc(C(F)(F)F)cn([C@H]6CCOC6)c5=O)n(C)c4c3Cl)c2cn1` (single isomer, unassigned) [Example I-305] gave a Kd of less than 0.01 µM. For `CNc1cn2ncc(Oc3cnc4nc(Nc5cc(C(F)(F)F)cn([C@@H]6CCOC6)c5=O)n(C)c4c3Cl)c2cn1` (single isomer, unassigned) [Example I-306], the Kd was 0.01 to 0.05 µM. For `CN1CCCC1c1ccc(Nc2nc3ncc(Oc4cnn5ccncc45)c(Cl)c3n2C)cc1C(F)(F)F` (single isomer, unassigned) [Example I-343], the Kd was less than 0.01 µM. `CN1CCC[C@@H]1c1ccc(Nc2nc3ncc(Oc4cnn5ccncc45)c(Cl)c3n2C)cc1C(F)(F)F` (single isomer, unassigned) [Example I-344] was tested, and the Kd was less than 0.01 µM. Work on `CN1CCCCC1COc1cc(Nc2nc3ncc(Oc4cnn5ccncc45)c(Cl)c3n2C)cc(C(F)(F)F)c1` (single isomer, unassigned) [Example I-350-a] yielded a Kd of less than 0.01 µM. Molecule `CN1CCCCC1COc1cc(Nc2nc3ncc(Oc4cnn5ccncc45)c(Cl)c3n2C)cc(C(F)(F)F)c1` (single isomer, unassigned) [Example I-350-b] has a Kd of less than 0.01 µM. Molecule `CNc1cn2ncc(Oc3cnc4nc(Nc5cc(C(F)(F)F)cn([C@H]6CCCOC6)c5=O)n(C)c4c3Cl)c2cn1` (single isomer, unassigned) [Example I-352-a] has a Kd of 0.01 to 0.05 µM. In the case of `CNc1cn2ncc(Oc3cnc4nc(Nc5cc(C(F)(F)F)cn([C@@H]6CCCOC6)c5=O)n(C)c4c3Cl)c2cn1` (single isomer, unassigned) [Example I-352-b], the Kd is reported as 0.01 to 0.05 µM. `CNc1cn2ncc(Oc3cnc4nc(Nc5cc([C@H]6CCCN6C)cc(C(F)(F)F)c5)n(C)c4c3Cl)c2cn1` (single isomer, unassigned) [Example I-359-a] showed a Kd of 0.05 to 1 µM.
